Laboratory results taken from patent US12285406B1, “Method of treating cancer with a selenide” (priority 2024, dated 2025).
≈ marks a conversion by molar mass, not a printed value.

Assays:
[1] = test system: human non-small cell lung cancer (A549); test: Antitumor activity (growth inhibition, cytotoxic IC50) against A549; type: cell-based; settings: for inhibition at 100 µg/mL: 100 μg/mL, read-out: growth inhibition percentage
[2] = test system: IL-1β; test: Protein expression level in MDA-MB-468 cells: IL-1β; type: cell-based, human; settings: compared to the control (untreated) cells
[3] = test system: COX-2; test: Protein expression level in MDA-MB-468 cells: COX-2; type: cell-based, human; settings: compared to the control (untreated) cells
[4] = test system: IL-6; test: Protein expression level in MDA-MB-468 cells: IL-6; type: cell-based, human; settings: compared to the control (untreated) cells
[5] = test system: p53; test: Protein expression level in MDA-MB-468 cells: p53; type: cell-based, human; settings: in comparison to the control (untreated) cells
[6] = test system: triple-negative breast cancer (MDA-MB-468); test: Antitumor activity (growth inhibition, cytotoxic IC50) against MDA-MB-468; type: cell-based; settings: Homo sapiens; for inhibition at 100 µg/mL: 100 μg/mL, read-out: growth inhibition percentage
[7] = test system: Caspase 8; test: Protein expression level in MDA-MB-468 cells: Caspase 8; type: cell-based, human; settings: in comparison to the control (untreated) cells
[8] = test system: BCL-2; test: Protein expression level in MDA-MB-468 cells: BCL-2; type: cell-based, human; settings: compared to the control (untreated) cells
[9] = test system: MMP9; test: Protein expression level in MDA-MB-468 cells: MMP9; type: cell-based, human; settings: compared to the control (untreated) cells
[10] = test system: Caspase 6; test: Protein expression level in MDA-MB-468 cells: Caspase 6; type: cell-based, human; settings: in comparison to the control (untreated) cells
[11] = test system: colorectal carcinoma (HCT116); test: Antitumor activity (growth inhibition) against HCT116; type: cell-based; settings: Homo sapiens, HCT-116, 100 μg/mL, read-out: growth inhibition percentage
[12] = test system: MMP2; test: Protein expression level in MDA-MB-468 cells: MMP2; type: cell-based, human; settings: compared to the control (untreated) cells
[13] = test system: cervical cancer (HeLa); test: Antitumor activity (growth inhibition, cytotoxic IC50) against HeLa; type: cell-based; settings: Homo sapiens; for inhibition at 100 µg/mL: 100 μg/mL, read-out: growth inhibition percentage
[14] = test system: prostate cancer (PC3); test: Antitumor activity (growth inhibition) against PC3; type: cell-based; settings: Homo sapiens, 100 μg/mL, read-out: growth inhibition percentage
[15] = test system: BAX; test: Protein expression level in MDA-MB-468 cells: BAX; type: cell-based, human; settings: in comparison to the control (untreated) cells
[16] = test system: Caspase 9; test: Protein expression level in MDA-MB-468 cells: Caspase 9; type: cell-based, human; settings: in comparison to the control (untreated) cells
[17] = test system: pharynx squamous carcinoma (FaDu); test: Antitumor activity (growth inhibition, cytotoxic IC50) against FaDu; type: cell-based; settings: Homo sapiens; for inhibition at 100 µg/mL: 100 μg/mL, read-out: growth inhibition percentage
[18] = test system: human oral epithelial normal cell line (OEC); test: Growth inhibition of normal cell line OEC; type: cell-based
[19] = test system: Caspase 3; test: Protein expression level in MDA-MB-468 cells: Caspase 3; type: cell-based, human; settings: in comparison to the control (untreated) cells
[20] = read-out: cytotoxic inhibitory concentration 50 (IC50)

For N#C[Se]CCCN1C(=O)c2ccccc2C1=O [DS128, 2-(3-selenocyanatopropyl) isoindoline-1,3-dione], the inhibition at 100 µg/mL [1] was 77.7%, the IC50 [1, 20] was 5.4 µg/mL (≈ 18.4 µM) and the “downregulation of IL-1β” value [2] was 0.42 times. For the same molecule, the “downregulation of COX-2” value [3] was 0.48 times, the “downregulation of IL-6” value [4] was 0.40 times and the “upregulation of p53 protein” value [5] was 1.77 times. For the same molecule, the inhibition at 100 µg/mL [6] was 86%, the IC50 [6, 20] was 4.33 µg/mL (≈ 14.8 µM) and the “upregulation of Caspase 8 protein” value [7] was 6.71 times. For the same molecule, the “downregulation of BCL-2 protein” value [8] was 0.44 times, the “downregulation of MMP9 protein” value [9] was 0.47 times and the “upregulation of Caspase 6 protein” value [10] was 2.46 times. For the same molecule, the inhibition at 100 µg/mL [11] was 78.5%, the “downregulation of MMP2 protein” value [12] was 0.43 times and the inhibition at 100 µg/mL [13] was 75.1%. For the same molecule, the IC50 [13, 20] was 5.36 µg/mL (≈ 18.3 µM), the inhibition at 100 µg/mL [14] was 83.2% and the “upregulation of BAX protein” value [15] was 1.68 times. The “upregulation of Caspase 9 protein” value [16] was 2.00 times, the inhibition at 100 µg/mL [17] was 83.8% and the IC50 [17, 20] was 5.46 µg/mL (≈ 18.6 µM). For the same molecule, the growth inhibition percentage [18] was 40.02% and the “upregulation of Caspase 3 protein” value [19] was 1.27 times.
COc1cccc2c1C(=O)c1c(O)c3c(c(O)c1C2=O)C[C@@](O)(C(=O)CO)C[C@@H]3O[C@H]1C[C@H](N)[C@H](O)[C@H](C)O1 [doxorubicin, reference compound] gave an inhibition at 100 µg/mL [1] of 86.4%, an inhibition at 100 µg/mL [6] of 96% and an inhibition at 100 µg/mL [11] of 71%. It also gave an inhibition at 100 µg/mL [13] of 92.7%, an inhibition at 100 µg/mL [14] of 89.9% and an inhibition at 100 µg/mL [17] of 92.9%. It also gave a growth inhibition percentage [18] of 57.89%.
